Test [1] has as its target T1, acetylcholinesterase from Electrophorus electricus (Electrophorus electricus, UniProt O42275).
T1 construct: purchased Sigma Aldrich type V-S
Description: biochemical. As to conditions: for IC50: read-out: AChE IC50; for AChE rp (relative inhibition potency): rp = IC50 (mono-tacrine)/IC50 (tetra-tacrine); for AChE rp/n (inhibition potency on valency-corrected basis): rp/n = rp/number of tacrine rings; for less active when connected to the central multivalent sugar scaffold: from rp/n of the corresponding tetra-tacrine. The class given is biochemical. The protocol: (§1) For the assessment of enzymatic inhibition, commercially available acetylcholinesterase from Electrophorus electricus (type V-S, Sigma Aldrich) was used, conducting minor modifications on Ellman’s protocol. […] Enzymatic activities were measured in a UV–Vis instrument (Hitachi U-2900) using PS cuvettes containing […] phosphate buffer (pH 8.0), 5,5′-dithiobis(2-nitrobenzoic acid) (DTNB, 0.88 mM, buffer solution), acetylthiocholine iodide as a model substrate, inhibitor, properly diluted aqueous enzyme solution, and water up to 1.2 ml. Solutions of the enzymes were prepared so as to keep the reaction rate within 0.12–0.15 Abs/min when [S] = 4 × KM.
Calculation of IC50 values was accomplished by plotting %I vs. log[I] and adjusting to a second-order equation.
(§2) Data are expressed as the mean ± SD.

The target of test [2] is T1, acetylcholinesterase from Electrophorus electricus. In words: Kinetic study of AChE inhibition mode (Cornish-Bowden plots, inhibition constants). The class given is biochemical. As to conditions: for Ki: mean ± SD. How it is done: as §1, with “KM. The formation of the chromophore was monitored during 125 s at 405 nm and 25 °C.” for “KM.”
For the calculation of the kinetic parameters of the free enzyme, and in the presence of 3a, five different substrate concentrations, ranging from ¼ KM to 4 × KM were used. Cornish-Bowden method[26] provided the mode of inhibition of 3a; for that purpose, two different plots were used: 1/v vs. [I] (Dixon plot) and [S]/v vs. [I]. […] Kinetic parameters (KM, Vmax, KM app, Vmax app) were obtained through non-linear regression analysis (least squares fit) using the GraphPad Prism 8.01 software and inhibition constants were calculated using the following equations: (1) KM,app=KM1+[I]/Kia/1+[I]/Kib (2) Vmaxapp=Vmax/1+[I]/Kib
as §2

The next test deals with AChE. The note with it: cited from earlier work.
Setting [3] is: [S] = 121 μM, Electrophorus electricus AChE, mean ± SD.

Like-named read-outs stand apart in the source and are kept apart here.

T1 sequence (O42275 24-633): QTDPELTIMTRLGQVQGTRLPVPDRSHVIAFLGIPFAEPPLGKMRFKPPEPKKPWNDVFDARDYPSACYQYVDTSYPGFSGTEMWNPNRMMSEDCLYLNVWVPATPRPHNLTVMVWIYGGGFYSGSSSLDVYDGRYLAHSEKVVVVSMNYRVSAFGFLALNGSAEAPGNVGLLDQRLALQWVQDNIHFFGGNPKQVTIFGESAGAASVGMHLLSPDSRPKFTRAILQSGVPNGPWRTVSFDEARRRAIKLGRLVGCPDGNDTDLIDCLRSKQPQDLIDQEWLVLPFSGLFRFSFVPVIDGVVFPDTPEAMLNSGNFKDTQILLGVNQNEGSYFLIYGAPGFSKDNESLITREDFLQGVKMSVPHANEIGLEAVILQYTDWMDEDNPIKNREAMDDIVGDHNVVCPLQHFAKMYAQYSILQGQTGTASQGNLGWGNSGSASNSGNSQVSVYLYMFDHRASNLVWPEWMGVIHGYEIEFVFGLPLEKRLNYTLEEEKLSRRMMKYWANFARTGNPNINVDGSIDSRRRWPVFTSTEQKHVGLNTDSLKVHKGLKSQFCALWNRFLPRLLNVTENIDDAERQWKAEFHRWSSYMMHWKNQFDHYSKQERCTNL

With `CO[C@H]1O[C@H](COCc2cn(CCNc3c4c(nc5ccccc35)CCCC4)nn2)[C@@H](OCc2cn(CCNc3c4c(nc5ccccc35)CCCC4)nn2)[C@H](OCc2cn(CCNc3c4c(nc5ccccc35)CCCC4)nn2)[C@H]1OCc1cn(CCNc2c3c(nc4ccccc24)CCCC3)nn1` [Compound 3a], in test [1], the IC50 (in general, the concentration that gives 50% inhibition) was 43.7 ± 7.3 nM; the “AChE rp (relative inhibition potency)” value came to 12.9; the “AChE rp/n (inhibition potency on valency-corrected basis)” value was 3.2. Also, the “mode of inhibition of AChE” value in test [2] (Cornish-Bowden method) is “Mixed inhibition”. In test [2] (binding to enzyme-substrate complex, read-out: Kib (non-competitive inhibition constant)), the Ki was 45 ± 5.9 nM. Besides, in test [2] (binding to free enzyme, read-out: Kia (competitive inhibition constant)), the Ki amounted to 31.6 ± 2 nM.
Consider `OCc1cn(CCNc2c3c(nc4ccccc24)CCCC3)nn1` [Compound 3b, (1-(2-((1,2,3,4-tetrahydroacridin-9-yl)amino)ethyl)-1H-1,2,3-triazol-4-yl)metanol], for which the IC50 in test [1] turned out to be 565 ± 79 nM.
As to `CO[C@H]1O[C@H](COCc2cn(CCCNc3c4c(nc5ccccc35)CCCC4)nn2)[C@@H](OCc2cn(CCCNc3c4c(nc5ccccc35)CCCC4)nn2)[C@H](OCc2cn(CCCNc3c4c(nc5ccccc35)CCCC4)nn2)[C@H]1OCc1cn(CCCNc2c3c(nc4ccccc24)CCCC3)nn1` [Compound 4a], the IC50 in test [1] (setting [3]) is 60.2 ± 5.5 nM. Further, in test [1], the “AChE rp (relative inhibition potency)” value was 5.8 and the “AChE rp/n (inhibition potency on valency-corrected basis)” value was 1.5.
Turning to `OCc1cn(CCCNc2c3c(nc4ccccc24)CCCC3)nn1` [Compound 4b, (1-(3-((1,2,3,4-tetrahydroacridin-9-yl)amino)propyl)-1H-1,2,3-triazol-4-yl)metanol], in test [1], the IC50 turned out to be 348 ± 23 nM.
As to `CO[C@H]1O[C@H](COCc2cn(CCCCCCNc3c4c(nc5ccccc35)CCCC4)nn2)[C@@H](OCc2cn(CCCCCCNc3c4c(nc5ccccc35)CCCC4)nn2)[C@H](OCc2cn(CCCCCCNc3c4c(nc5ccccc35)CCCC4)nn2)[C@H]1OCc1cn(CCCCCCNc2c3c(nc4ccccc24)CCCC3)nn1` [Compound 5a], in test [1], the IC50 was found to be 12.5 ± 3.3 nM and the “AChE rp (relative inhibition potency)” value came out at 1.0.
Regarding `OCc1cn(CCCCCCNc2c3c(nc4ccccc24)CCCC3)nn1` [Compound 5b, (1-(6-((1,2,3,4-tetrahydroacridin-9-yl)amino)hexyl)-1H-1,2,3-triazol-4-yl)metanol], in test [1], the “less active when connected to the central multivalent sugar scaffold” value came out at 75% and the IC50 was 12.6 ± 2.4 nM.
Consider `CO[C@H]1O[C@H](COCc2cn(CCCCCCCCNc3c4c(nc5ccccc35)CCCC4)nn2)[C@@H](OCc2cn(CCCCCCCCNc3c4c(nc5ccccc35)CCCC4)nn2)[C@H](OCc2cn(CCCCCCCCNc3c4c(nc5ccccc35)CCCC4)nn2)[C@H]1OCc1cn(CCCCCCCCNc2c3c(nc4ccccc24)CCCC3)nn1` [Compound 6a], for which, in test [1] (setting [3]), the IC50 turned out to be 232 ± 21 nM. For the same molecule, in test [1], the “AChE rp (relative inhibition potency)” value stood at 0.03.
As for `OCc1cn(CCCCCCCCNc2c3c(nc4ccccc24)CCCC3)nn1` [Compound 6b, (1-(8-((1,2,3,4-Tetrahydroacridin-9-yl)amino)octyl)-1H-1,2,3-triazol-4-yl)metanol], in test [1], the “less active when connected to the central multivalent sugar scaffold” value is given as “more than 99%” and the IC50 stood at 7.1 ± 1 nM.
Consider `CO[C@H]1O[C@H](CO)[C@@H](O)[C@H](O)[C@H]1O` [Methyl α-D-glucopyranoside, methyl α-D-glucopyranoside, reference compound], for which the “AChE inhibition (N.I.)” value in test [1] (Tested at 100 μM inhibitor concentration, [S] = 121 μM) is given as “N.I.^d”.
Turning to `c1ccc2c(NCCCCCCCNc3c4c(nc5ccccc35)CCCC4)c3c(nc2c1)CCCC3` [bis(7)tacrine], in the test on AChE, the “fold stronger AChE inhibitor than tacrine” value is roughly 1000 fold.

(Values after article PMC8317962, “Development of tacrine clusters as positively cooperative systems for the inhibition of acetylcholinesterase” (Journal of Enzyme Inhibition and Medicinal Chemistry, 2021).)
